# Measured values taken from BindingDB's records for doi:10.1021/jm000022w (Cor Therapeutics, 2000).
# Starred links: 1 amine or outer side, 2 acyl side, 3 side chain; linkers in the order of their positions; H or OH if unused. Positions of bridges follow the written chain, without caps; N, C: chain ends. Non-standard residues stand in square brackets, D forms with d. Residues, ends and D or L forms follow the SMILES beside them. ξ: configuration not given here. Cys(O)(CH2CO) = O=C([C@H](C[S+]([O-])CC(=O)[*:3])N[*:1])[*:2]; NMeR = CN[C@@H](CCCNC(=N)N)C(=O)O; hArg = N=C(N)NCCCC[C@H](N)C(=O)O; 3Amb = NCc1cccc(C(=O)O)c1; ξR = N=C(N)NCCCC(N)C(=O)O; dAbu = CC[C@@H](N)C(=O)O; Mpa = O=C(O)CCS
# Test: Inhibition of human platelet aggregation
row,SMILES,IC50 [nM]
1,CC(C)CC(=O)N[C@@H](CCCCNC(=O)c1ccc(C(=N)N)cc1)CC(=O)O [7-(4-Carbamimidoyl-benzoylamino)-3-(3-methyl-butyrylamino)-heptanoic acid (GPI 562)],15

# Test: Inhibition of platelet aggregation
row,SMILES,IC50 [nM]
1,"Cc1c(C(=O)NCCC(=O)O)s/c(=N\C(=O)c2ccc(C(=N)N3CCC4(CC3)OCCO4)cc2)n1C [3-[(2-{4-[(1,4-Dioxa-8-aza-spiro[4.5]dec-8-yl)-imino-methyl]-benzoylimino}-3,4-dimethyl-2,3-dihydro-thiazole-5-carbonyl)-amino]-propionic acid (PSA0613)]",22
2,CCOC(=O)CCN(c1ncc(-c2ccc(C(N)=NC(=O)OCC)cc2)s1)C1CCN(CC(=O)OCC)CC1 [3-[{5-[4-(Ethoxycarbonylamino-imino-methyl)-phenyl]-thiazol-2-yl}-(1-ethoxycarbonylmethyl-piperidin-4-yl)-amino]-propionic acid ethyl ester (SR121787)],> 90

# Test: In vitro inhibition of gel filtered platelet aggregation induced by ADP.
row,SMILES,IC50 [nM]
1,[H]/N=C(/N)c1ccc(C2=NO[C@@H](CC(=O)NC[C@H](NC(=O)OCCCC)C(=O)O)C2)cc1,60
2,"Cc1noc(C)c1S(=O)(=O)N[C@@H](CNC(=O)C1CCC2(CC1)CCN(c1ccncc1)CC2)C(=O)O [2-(3,5-Dimethyl-isoxazole-4-sulfonylamino)-3-[(3-pyridin-4-yl-3-aza-spiro[5.5]undecane-9-carbonyl)-amino]-propionic acid]",44
3,"Cc1noc(C)c1S(=O)(=O)N[C@@H](CCC(=O)N1CCC2(CC1)CCN(c1ccncc1)CC2)C(=O)O [2-(3,5-Dimethyl-isoxazole-4-sulfonylamino)-5-oxo-5-(9-pyridin-4-yl-3,9-diaza-spiro[5.5]undec-3-yl)-pentanoic acid]",21
4,"CCCCS(=O)(=O)NC(CC#Cc1ccc2[nH]c(=O)n(CCC3CCNCC3)c(=O)c2c1)C(=O)O (stereo unspecified) [2-(Butane-1-sulfonylamino)-5-[2,4-dioxo-3-(2-piperidin-4-yl-ethyl)-1,2,3,4-tetrahydro-quinazolin-6-yl]-pent-4-ynoic acid]",37
5,"CCCCS(=O)(=O)NC(CC#Cc1ccc2nc(C)n(CCC3CCNCC3)c(=O)c2c1)C(=O)O (stereo unspecified) [2-(Butane-1-sulfonylamino)-5-[2-methyl-4-oxo-3-(2-piperidin-4-yl-ethyl)-3,4-dihydro-quinazolin-6-yl]-pent-4-ynoic acid]",43
6,O=C(NC[C@H](NS(=O)(=O)c1ccccc1)C(=O)O)c1cc2cc(OCC3CCNCC3)ccc2[nH]1 [2-Benzenesulfonylamino-3-{[5-(piperidin-4-ylmethoxy)-1H-indole-2-carbonyl]-amino}-propionic acid(L-756568)],13
7,"Cc1ccc(S(=O)(=O)N[C@@H](CCC(=O)N2CCC3(CC2)C(=O)N(c2ccc(C(=N)N)cc2)C(=O)N3C)C(=O)O)cc1 [5-[3-(4-Carbamimidoyl-phenyl)-1-methyl-2,4-dioxo-1,3,8-triaza-spiro[4.5]dec-8-yl]-5-oxo-2-(toluene-4-sulfonylamino)-pentanoic acid]",59
8,"CCCCS(=O)(=O)N[C@@H](CNC(=O)c1cc2n(n1)CCN(CCC1CCNCC1)C2=O)C(=O)O [(S)-2-(Butane-1-sulfonylamino)-3-{[4-oxo-5-(2-piperidin-4-yl-ethyl)-4,5,6,7-tetrahydro-pyrazolo[1,5-a]pyrazine-2-carbonyl]-amino}-propionic acid]",9
9,"O=C(NC[C@H](NS(=O)(=O)c1ccccc1)C(=O)O)c1cc2c(s1)CCN(CCC1CCNCC1)C2=O [(S)-2-Benzenesulfonylamino-3-{[4-oxo-5-(2-piperidin-4-yl-ethyl)-4,5,6,7-tetrahydro-thieno[3,2-c]pyridine-2-carbonyl]-amino}-propionic acid]",8
10,Cc1ccc(S(=O)(=O)N[C@@H](CNC(=O)c2ccc3oc(-c4ccc(C(=N)N)cc4)nc3c2)C(=O)O)cc1 [(S)-3-{[2-(4-Carbamimidoyl-phenyl)-benzooxazole-5-carbonyl]-amino}-2-(toluene-4-sulfonylamino)-propionic acid],10
11,C#C[C@H](CC(=O)O)NC(=O)CN1CCc2ccc(N3CCNCC3)cc2C1=O [L-767679],12
12,"N=C(N)c1ccc(C(=O)Nc2ccc3c(c2)CCC(CC(=O)O)C3=O)cc1 (stereo unspecified) [[6-(4-Carbamimidoyl-benzoylamino)-1-oxo-1,2,3,4-tetrahydro-naphthalen-2-yl]-acetic acid]",60
13,N=C(N)c1ccc(C(=O)Nc2ccc3c(c2)CCC(CC(=O)O)O3)cc1 (stereo unspecified) [[6-(4-Carbamimidoyl-benzoylamino)-chroman-2-yl]-acetic acid],190
14,N=C(c1ccc(C(=O)Nc2ccc3c(c2)C[C@@H](CC(=O)O)CO3)cc1)N1CCOCC1 [{(S)-6-[4-(Imino-morpholin-4-yl-methyl)-benzoylamino]-chroman-3-yl}-acetic acid],35

# Test: Inhibition of human platelet aggregation
# Remark: another data set of the same source
row,SMILES,IC50 [nM]
1,CC[C@H]1NC(=O)c2cccc(c2)CNC(=O)[C@H](CC(=O)O)NC(=O)CNC(=O)[C@H](CCCN=C(N)N)N(C)C1=O [DMP-728] (cyclo([NMeR]GD[3Amb][dAbu])),46

# Test: Inhibition of ADP-induced platelet aggregation in human platelet rich plasma
row,SMILES,IC50 [nM]
1,"CN(C(=O)c1ccc2c(c1)CN(CCc1ccccc1)C(=O)C(CC(=O)O)N2)c1ccc(C(=N)N)cc1 (stereo unspecified) [{7-[(4-Carbamimidoyl-phenyl)-methyl-carbamoyl]-3-oxo-4-phenethyl-2,3,4,5-tetrahydro-1H-benzo[e][1,4]diazepin-2-yl}-acetic acid]",160
2,"CN(C(=O)c1ccc2c(c1)NC(CC(=O)O)C(=O)N(CCc1ccccc1)C2)c1ccc(C(=N)N)cc1 (stereo unspecified) [{8-[(4-Carbamimidoyl-phenyl)-methyl-carbamoyl]-3-oxo-4-phenethyl-2,3,4,5-tetrahydro-1H-benzo[e][1,4]diazepin-2-yl}-acetic acid(SB-208651)]",65

# Test: Inhibition of human platelet aggregation
# Remark: another data set of the same source
row,SMILES,IC50 [nM]
1,"CCCCOC(=O)N[C@@H](CNC(=O)C[C@H]1CC(c2ccc(C(=N)N)cc2)=NO1)C(=O)OC [2-Butoxycarbonylamino-3-{2-[3-(4-carbamimidoyl-phenyl)-4,5-dihydro-isoxazol-5-yl]-acetylamino}-propionic acid methyl ester(DMP 754(roxifiban))]",60
2,CCOC(=O)CN1CCN(C[C@@H]2CN(c3ccc(C(N)=NC(=O)OC)cc3)C(=O)O2)CC1 [Gantofiban],8

# Test: Inhibition of platelet aggregation
# Remark: another data set of the same source
row,SMILES,IC50 [nM]
1,CC(=O)NC(CCCNC(=N)N)C(=O)NCC(=O)N[C@@H](CC(=O)O)C(=O)N[C@H](C(N)=O)C(C)C (stereo partly specified) [3-[2-(2-Acetylamino-5-guanidino-pentanoylamino)-acetylamino]-N-(1-carbamoyl-2-methyl-propyl)-succinamic acid] (Ac-[ξR]GDV-NH2),32000
2,COc1ccc(C[C@H](NC(=O)[C@H](CC(=O)O)NC(=O)CNC(=O)[C@@H](N)CCCNC(=N)N)C(N)=O)cc1 [SC-46749] (H-RGDY(Me)-NH2),32000

# Test: Inhibition of human platelet aggregation collected with sodium citrate as anticoagulant
row,SMILES,IC50 [nM]
1,N=C(N)NCCCC[C@@H]1NC(=O)CCSSC[C@@H](C(N)=O)NC(=O)[C@@H]2CCCN2C(=O)[C@H](Cc2c[nH]c3ccccc23)NC(=O)[C@H](CC(=O)O)NC(=O)CNC1=O ([Mpa][hArg]GDWPC-NH2; disulfide 1-7),140

# Test: Inhibition of human gel filtered platelet aggregation induced by ADP
row,SMILES,IC50 [nM]
1,"C[C@@]1(c2ccc(C(=N)N)cc2)NC(=O)N(CC(=O)NC(CC(=O)O)c2ccccc2)C1=O (stereo partly specified) [3-{2-[4-(4-Carbamimidoyl-phenyl)-4-methyl-2,5-dioxo-imidazolidin-1-yl]-acetylamino}-3-phenyl-propionic acid(S1197)]",20

# Test: Inhibition canine platelet aggregation in platelet rich plasma (PRP)
row,SMILES,IC50 [nM]
1,N=C(N)c1ccc(CCCCC(=O)N[C@@H](CC(=O)O)C(=O)N[C@@H](Cc2ccccc2)C(=O)O)cc1 [SC-52012],72

# Test: Inhibition of platelet aggregation
# Remark: another data set of the same source
row,SMILES,IC50 [nM]
1,N=C(N)c1ccc(C(=O)Nc2cccc(C(=O)NCCC(=O)O)c2)cc1,200
2,[H]/N=C(/N)c1ccc(C(=O)N[C@@H](Cc2ccc(O)cc2)C(=O)N2CCC(OCC(=O)O)CC2)cc1,30
3,CC(C)[C@H](NC(=O)[C@H](CC(=O)O)NC(=O)CNC(=O)Cc1ccc(C(=N)N)cc1)C(=O)O,300
4,CC(C)[C@H](NC(=O)[C@H](CC(=O)O)NC(=O)CCNC(=O)c1ccc(C(=N)N)cc1)C(=O)O [2-{2-[3-(4-Carbamimidoyl-benzoylamino)-propionylamino]-3-carboxy-propionylamino}-3-methyl-butyric acid (Ro 43-5054)],30
5,"N=C(N)NCCC[C@@H]1NC(=O)[C@@H](Cc2ccc(O)cc2)NC(=O)C[S+]([O-])C[C@@H](C(=O)O)NC(=O)[C@H](CC(=O)O)NC(=O)CNC1=O (stereo partly specified) [6-Carboxymethyl-12-(3-guanidino-propyl)-15-(4-hydroxy-benzyl)-1,5,8,11,14,17-hexaoxo-1lambda*4*-thia-4,7,10,13,16-pentaaza-cyclooctadecane-3-carboxylic acid (G4120)] ([dY]RGD[Cys(O)(CH2CO)]-OH; lactam N-5)",150
6,CN(CC(=O)c1ccc(OCC(=O)O)c(OCC(=O)O)c1)C(=O)c1ccc(C(=N)N)cc1 [(4-{2-[(4-Carbamimidoyl-benzoyl)-methyl-amino]-acetyl}-2-carboxymethoxy-phenoxy)-acetic acid],70

# Test: Inhibition of […] and platelet aggregation in human platelet rich plasma
row,SMILES,IC50 [nM]
1,C[C@@H](COc1ccc(N2CCN(c3ccncc3)CC2)cc1)CC(=O)O [3-Methyl-4-[4-(4-pyridin-4-yl-piperazin-1-yl)-phenoxy]-butyric acid (ZD 2486)],50
2,N=C(N)c1ccc(N2CCN(c3ccc(OCC(=O)O)cc3)CC2)cc1 [{4-[4-(4-Carbamimidoyl-phenyl)-piperazin-1-yl]-phenoxy}-acetic acid],20
3,[H]/N=C(/N)c1ccc(N2CCN(C3CCN(CC(=O)O)CC3)CC2)cc1 [{4-[4-(4-Carbamimidoyl-phenyl)-piperazin-1-yl]-piperidin-1-yl}-acetic acid (GR 144053)],59
